Results from patent US20260023087A1, “A Novel Chemogenetic Tool Permitting Modulation of Intracellular pH” (ISTANBUL MEDIPOL UNIVERSITESI, priority 2023, published 2026).

Tests used:
DsRed-stDCyD = target: T1, DsRed-stDCyD (Salmonella typhimurium, UniProt Q8ZNT7); test: SypHer3s live-cell imaging of intracellular pH in HEK293T cells expressing pH-Control, substrates administered; format: cell-based, human; conditions: for ability to acidify cell compartments: cells expressing stDCyD; for selectivity test: enzyme response in comparison to βCDA: FIG. 1f
T1 construct: expressed in transfected cells; host or cells: HEK293 / HEK293T
T1 sequence (Q8ZNT7 whole entry, added parts left off): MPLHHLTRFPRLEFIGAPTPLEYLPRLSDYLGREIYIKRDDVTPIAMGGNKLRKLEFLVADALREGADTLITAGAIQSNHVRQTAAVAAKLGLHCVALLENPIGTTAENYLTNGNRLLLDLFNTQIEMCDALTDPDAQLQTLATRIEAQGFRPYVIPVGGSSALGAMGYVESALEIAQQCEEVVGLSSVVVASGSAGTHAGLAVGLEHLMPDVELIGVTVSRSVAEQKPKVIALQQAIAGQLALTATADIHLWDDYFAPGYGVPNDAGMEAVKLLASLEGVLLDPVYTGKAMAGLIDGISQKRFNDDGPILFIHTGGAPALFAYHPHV
Experimental: (§1) For live-cell imaging experiments, a HEPES-buffered physiological solution was used consisting of 2 mM CaCl2, 5 mM KCl, 138 mM NaCl, 1 mM MgCl2, 10 mM HEPES, 10 mM D-Glucose, and pH was adjusted to 7.43 using 1 M NaOH. For experiments with nigericin (N7143, Merck) and monensin (M5273, Merck), imaging buffered contained 5 mM KCl, 138 mM NaCl, 1 mM MgCl2, 20 mM HEPES, 10 mM D-Glucose, 0.2 mM EGTA and pH was adjusted to the desired value using either 1 M NaOH or 1M HCl. To prepare β-Chloro-D-alanine solutions, the powder was dissolved in imaging buffer and the pH was readjusted to 7.43.
(§2) Characterization studies have been performed in cultured human embryonic kidney cells (HEK293), grown in a high-glucose (4.5 g/L) complete medium including 10% FBS and 100 μg/ml streptomycin and 100 U/ml penicillin in a humidified incubator (37° C., 5% CO2). 24 hours before transfection, cells were seeded (˜3×10^5 cells per well) on a 30 mm glass coverslips No.1 (Glaswarenfabrik Karl Knecht Sondheim, Germany). At ˜70-80% confluency, cells were co-transfected with CMV-driven mammalian expression vectors (pLenti-MP2) encoding for differential targeted SypHer3s or DsRed-stDCyD enzymes using PolyJet transfection reagent according to the manufacturer's instructions. All imaging experiments were performed 24 h after transfection. HEK293T cells were cultured up to passage 30.
Widefield imaging experiments were performed on a Zeiss Axio Observer.Z1/7 (Carl Zeiss AG, Oberkochen, Germany) equipped with an LED light source Colibri 7 (423/44 nm, 469/38 nm, 555/30), PlanApochromat 20x/0.8 dry objective, Plan-Apochromat 40x/1.4 oil immersion objective, a monochrome CCD camera Axiocam 503. A custom-made pump-driven perfusion system was used to administrate and withdraw substrates to cells placed in a metal perfusion chamber (NGFI, Graz, Austria). SypHer signals were imaged by alternately exciting cells using a motorized dual-filter wheel equipped with beam splitters (FT455 (for SypHer low, F420) and FT495 (for SypHer high, F490)). Emissions were alternately collected using a bandpass filter (BP 525/50). DsRed-stDyCD emission was collected using the filter combinations FT570 (BS) and emission filter 605/70. During live-imaging data acquisition was performed using Zen Blue 3.1 Pro software (Carl Zeiss AG, Oberkochen, Germany). Confocal imaging was performed using a laser scanning confocal microscope LSM 800 (Zeiss, Germany) equipped with a Plan-Apochromat 40x/1.3 DIC (UV) VIS-IS oil immersion objective. SypHer biosensors were excited with a 488 nm and 405 nm laser, and emissions were collected using a 509 nm filter system. SypHer signals were acquired with an A GaAsP-PMT detector and 400-565 nm filter using a Multialkali-PMT detector. DsRed-stDCyD constructs were excited using a 561 nm laser, and the emission wavelength was captured between 616 and 700 nm. The digital detector gain for all channels was set at 1; detector gain was applied between 500 and 1000 V. Laser intensities were set between 0.90% and 0.95%, and the pinhole was set between 29 and 32 μm according to the expression level of the fluorescent proteins. Bright-field mode was imaged using a photodiode detector. Zen Blue 3.1 software (Zeiss, Germany) was used to determine regions of interest.

HEK293T cells [1] = test: Overcorrection of intracellular pH after acute acidification, with and without monensin and nigericin; format: cell-based, human; conditions: 10 μM nigericin and 10 μM monensin together
Experimental: FIG. 7. Overcorrection of intracellular pH levels following acute acidification. (left) Real-time traces of HEK293T cells expressing SypHer and pH-Control in response to 1 mM βCDA in the presence (pink curve and (right) bars, n= 3/15) and absence (green curve and (right) bars n= 3/13) 10 μM nigericin and 10 μM monensin that permeabilize the plasma membrane. Student's t-test has been applied.
as §1
Widefield imaging experiments were performed on a Zeiss Axio Observer.Z1/7 (Carl Zeiss AG, Oberkochen, Germany) equipped with an LED light source Colibri 7 (423/44 nm, 469/38 nm, 555/30), PlanApochromat 20x/0.8 dry objective, Plan-Apochromat 40x/1.4 oil immersion objective, a monochrome CCD camera Axiocam 503. […]

[2] = system: mouse primary dorsal root ganglion (DRG) neurons; test: Membrane potential imaging with voltage sensor ASAP2s in DRG neurons co-expressing pH-Control; format: cell-based; conditions: 10 mM βCDA versus high extracellular potassium (50 mM)
Experimental: (§3) Primary Neuron Culture: WT C57BL/6 mice were euthanized via cervical dislocation. Bilateral DRGs from all segments were dissected and then put in an ice-cold RPMI 1640 medium (R0883, Gibco). For enzymatic dissociation, ganglia were incubated with 100 U/mL collagenases (C9407, Sigma) in a neural medium containing 2% B27 (17504-044, Gibco), 2 mM Glutamax-I (35050-61, Gibco), 100 U penicillin, and […] (15140-122, Gibco) in Neural Basal Medium (NBA, 10888-022, Gibco) at 37C, 5% CO2. Following a 40 min incubation time, the medium containing collagenase was removed, and the ganglia were washed using Hank's buffered salt solution (H9269, Sigma). The ganglia were further enzymatically dissociated using 1 mg/mL trypsin (25300-054, Gibco) in the neural medium for 15 min at 37° C., 5% CO2. At the end of incubation, […] DNAse (D4513, Sigma) was added to the trypsin solution cell suspension to inhibit free DNA fragments, and the tissues were triturated by pipetting to obtain single cells. 30 min after incubation at 37° C., 5% CO2, the cell suspension was spun at 120 g for 3 min and resuspended neural medium supplemented with 10% fetal calf serum and […] trypsin inhibitor (T6522, Sigma) to inhibit enzymatic activity. […]

HEK293T cells [3] = test: SypHer3s live-cell imaging of intracellular pH in cells without the enzyme; format: cell-based, human
Experimental: as §1
as §2, with “30. […]” for “30.”

[4] = system: mouse primary dorsal root ganglion (DRG) neurons; test: SypHer3s imaging in primary DRG neurons expressing pH-Control; format: cell-based; conditions: different concentrations (10 or 1 mM, FIG. 1h)
Experimental: as §3

## N[C@H](CS)C(=O)O [D-Cysteine]
DsRed-stDCyD; 10 mM
  decrease in pHi: marginal decrease in pHi

## CC[C@@]1([C@@H]2O[C@@H]([C@H]3O[C@@](O)(CO)[C@H](C)C[C@@H]3C)C[C@@H]2C)CC[C@H]([C@]2(C)CC[C@]3(C[C@H](O)[C@@H](C)[C@@H]([C@@H](C)[C@@H](OC)[C@H](C)C(=O)O)O3)O2)O1 [monensin]
HEK293T cells [1]
  intracellular pH overcorrection after withdrawal of 1 mM βCDA: diminished

## N[C@H](CCl)C(=O)O [βCDA, β-chloro-D-alanine]
[2]
  depolarization of membrane potential (ASAP2s): depolarized primary neurons even stronger than high extracellular potassium
HEK293T cells [3]; different levels of substrate (FIG. 1e, right panel)
  SypHer response of cells only expressing SypHer: remained unresponsive
HEK293T cells [3]; same high-concentration treatment (13.4 mM, FIG. 1c)
  SypHer3s response of wild-type cells without the enzyme: marginal response
[4]
  SypHer3s signals in DRG neurons: robust SypHer3s signals
DsRed-stDCyD; after recovery, indicates cellular alkalization (FIGS. 1c, 1g, 5a)
  biosensor signal after withdrawal of substrate: overshot the baseline
DsRed-stDCyD; cells expressing pH-Control, constitutive administration of different levels (FIG. 1e)
  SypHer response to different levels of substrate: concentration-dependent and fully reversible SypHer response
DsRed-stDCyD; cells expressing pH-Control, high concentrations of βCDA (13.4 mM, FIG. 1c)
  intracellular acidification documented by SypHer3s: robust intracellular acidification
DsRed-stDCyD
  ability to acidify cell compartments: can acidify cell compartments

## C[C@@H](N)C(=O)O [D-alanine]
DsRed-stDCyD
  selectivity test: enzyme response in comparison to βCDA: remained agnostic
  ability to acidify cell compartments: not

## CO[C@@H]1C[C@@H](C[C@H]2CC[C@H](C)[C@H]([C@@H](C)C(=O)O)O2)O[C@]2(O[C@](C)([C@H]3CC[C@@](C)([C@@H]4O[C@@H]([C@H]5O[C@@](O)(CO)[C@H](C)C[C@@H]5C)C[C@@H]4C)O3)C[C@H]2C)[C@@H]1C [nigericin]
HEK293T cells [1]
  intracellular pH overcorrection after withdrawal of 1 mM βCDA: diminished

## N[C@@H](CCl)C(=O)O [βCLA, β-chloro-L-alanine]
DsRed-stDCyD
  selectivity test: enzyme response in comparison to βCDA: marginal responses
